In PubChem BioAssay (NCI):
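Assay format: 96-well plates, 48-hour exposure. TGI marks complete inhibition of growth.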

Tests used:
Experiment in all cases: DTP human tumour cell line panel, 48 h
OVCAR-3 ovarian = tested on: OVCAR-3 ovarian
RXF 393 renal = tested on: RXF 393 renal
KM12 colon = tested on: KM12 colon
SW-620 colon = tested on: SW-620 colon
NCI-H23 lung = tested on: NCI-H23 lung
COLO 205 colon = tested on: COLO 205 colon
HS 578T breast = tested on: HS 578T breast
NCI/ADR-RES ovarian = tested on: NCI/ADR-RES ovarian
HOP-62 NSCLC = tested on: HOP-62 NSCLC
SNB-19 CNS = tested on: SNB-19 CNS
MDA-MB-231 breast = tested on: MDA-MB-231 breast
TK-10 renal = tested on: TK-10 renal
ACHN renal = tested on: ACHN renal
HCT-15 colon = tested on: HCT-15 colon
SF-539 CNS = tested on: SF-539 CNS
OVCAR-4 ovarian = tested on: OVCAR-4 ovarian
EKVX NSCLC = tested on: EKVX NSCLC
T-47D breast = tested on: T-47D breast
CAKI-1 renal = tested on: CAKI-1 renal
MDA-N = tested on: MDA-N

| Structure (SMILES) | TGI (OVCAR-3 ovarian) [µM] | TGI (RXF 393 renal) [µM] | TGI (KM12 colon) [µM] | TGI (SW-620 colon) [µM] | TGI (NCI-H23 lung) [µM] | TGI (COLO 205 colon) [µM] | TGI (HS 578T breast) [µM] | TGI (NCI/ADR-RES ovarian) [µM] | TGI (HOP-62 NSCLC) [µM] | TGI (SNB-19 CNS) [µM] | TGI (MDA-MB-231 breast) [µM] | TGI (TK-10 renal) [µM] | TGI (ACHN renal) [µM] | TGI (HCT-15 colon) [µM] | TGI (SF-539 CNS) [µM] | TGI (OVCAR-4 ovarian) [µM] | TGI (EKVX NSCLC) [µM] | TGI (T-47D breast) [µM] | TGI (CAKI-1 renal) [µM] | TGI (MDA-N) [µM] |
| --- | --- | --- | --- | --- | --- | --- | --- | --- | --- | --- | --- | --- | --- | --- | --- | --- | --- | --- | --- | --- |
| COC(=O)/C=C(/OC)[C@H](C)[C@H](/C=C/c1csc(-c2csc(C(C)C)n2)n1)OC | > 56.3 | > 25 | > 100 | > 100 | > 100 | > 100 | > 100 | > 100 | > 100 | > 100 | > 100 | > 100 | > 100 | > 100 | > 100 | > 100 | > 100 | > 100 | > 100 | – |
| Brc1cc2c(cc1C1SCCS1)OCO2 | > 100 | – | > 100 | > 100 | > 100 | – | – | – | > 100 | > 100 | – | > 100 | > 100 | > 100 | > 100 | > 100 | > 100 | – | > 100 | – |
| O=[N+]([O-])c1c(C=Nc2ccccc2)oc(-c2ccc3c(c2)OCO3)c1-c1ccc2c(c1)OCO2 | > 100 | > 100 | > 100 | > 100 | > 100 | > 100 | – | – | > 100 | > 100 | – | > 100 | > 100 | > 100 | > 100 | > 100 | – | – | > 100 | – |
| COC1O[C@H]2[C@H]3[C@@H]1[C@@H](OS(=O)(=O)c1ccc(C)cc1)C(=O)N3C[C@H]2O (stereo not given in full) | > 100 | 81.7 | > 100 | > 100 | > 100 | > 100 | – | > 100 | > 100 | > 100 | > 100 | > 100 | > 100 | > 100 | > 100 | > 100 | > 100 | > 100 | > 100 | – |
| O=C(COc1ccc(Cl)c(Cl)c1)N(Cc1ccccc1)Cc1ccc[n+](Cc2ccc(Cl)cc2S(=O)(=O)F)c1 | > 100 | > 100 | 56.6 | > 100 | > 100 | > 100 | > 100 | > 100 | > 100 | > 100 | 31.9 | > 100 | > 100 | > 100 | > 100 | > 100 | – | > 100 | > 100 | – |
| CN(Cc1ccccc1)C(=NC#N)N(C)Cc1ccccc1 | > 100 | – | > 100 | > 100 | > 100 | > 100 | – | – | > 100 | > 100 | – | > 100 | > 100 | > 100 | > 100 | > 100 | > 100 | – | > 100 | – |
| N#Cc1nc(C(CO)N(Cc2ccccc2)C(=O)O)oc1N (stereo not given) | > 100 | > 100 | > 100 | – | > 100 | > 100 | – | > 100 | > 100 | – | > 100 | > 100 | > 100 | > 100 | > 100 | > 100 | > 100 | > 100 | > 100 | – |
| O=C1C(=Cc2cccc(O)c2)N=C(c2ccccc2)N1n1c(-c2ccccc2)nc2ccccc2c1=O | 70.1 | 83.8 | 56.4 | > 100 | 88.5 | 79.7 | 76.8 | > 100 | – | 72.7 | > 100 | > 100 | 58 | > 100 | 51.3 | > 100 | > 100 | 91.7 | 85.8 | – |
| COc1cc(/C=C2\C(=O)N(C(=O)c3ccc(NC(C)=O)cc3)N=C2C)ccc1O | > 100 | – | > 100 | > 100 | > 100 | > 100 | – | – | > 100 | > 100 | – | > 100 | > 100 | – | > 100 | > 100 | > 100 | – | > 100 | – |
| COc1ccc(C=C(c2ccc(OCc3ccccc3)cc2)c2ccc(OCc3ccccc3)cc2)cc1 | > 100 | > 100 | > 100 | > 100 | > 100 | > 100 | – | – | > 100 | > 100 | – | > 100 | > 100 | > 100 | > 100 | > 100 | > 100 | – | > 100 | – |
| C[Si](C)(OCCS(=O)(=O)O)OC(=C1S(=O)(=O)OCCOS1(=O)=O)c1cccc2ccccc12 | > 100 | > 100 | > 100 | > 100 | > 100 | > 100 | – | > 100 | > 100 | > 100 | > 100 | > 100 | > 100 | > 100 | > 100 | > 100 | > 100 | – | > 100 | > 100 |
| O=C1C2CN(Cc3ccccc3)CC1CN(CC1CC1)C2 | > 100 | > 100 | > 100 | > 100 | > 100 | > 100 | – | – | > 100 | > 100 | – | > 100 | > 100 | > 100 | > 100 | > 100 | > 100 | – | > 100 | – |
| COc1ccccc1/C=C1\CCC(CCN2CCOCC2)C1=O (stereo not given) | > 100 | > 100 | > 100 | > 100 | > 100 | – | – | – | > 100 | > 100 | – | > 100 | > 100 | > 100 | > 100 | > 100 | > 100 | – | > 100 | – |
